Here are results for 4 compounds from US11203576B2, “Aurora kinase and Janus kinase inhibitors for prevention of graft versus host disease” (H. LEE MOFFITT CANCER CENTER AND RESEARCH INSTITUTE, INC., priority 2016, dated 2021).

Read-outs that look alike come from different tables or passages of the source. Bounds are passed on as bounds.

Data set [1] has as its system T-cells allostimulated by dendritic cells (DC). The experiment in a line: Allogeneic mixed leukocyte reaction (alloMLR), T-cell proliferation. Type of data set: cell-based, human. Here is the method: Bulk donor T-cells were allostimulated with allogeneic DCs (DC:T-cell ratio of 1:30) as previously described (OneBlood, Tampa, Fla.)(15, 16, 20). […] As indicated, alloMLRs consisting of Treg depleted, naïve CD4^+ T-cells (Miltenyi Biotec Inc, San Diego, Calif.) were treated with a combination of ARL67156 (CD39 inhibitor, 125 μM, Sigma), AJI, or DMSO on day 0 to study the role of CD39 and ATP in this system. T-cell proliferation was measured on day 5 by a colorimetric assay (CellTiter 96 Aqueous One Solution Cell Proliferation Assay [MTS]; or CellTiter Blue, Promega, Madison, Wis.). Absorbance/optical density (OD) was analyzed at 490 nm or 590 nm, respectively. Proliferation (%)=(OD treated alloMLR−OD T-cells alone)/(OD DMSO alloMLR−OD T-cells alone)×100.

Another data set relates to CD39 on iTreg. The experiment in a line: ATP hydrolysis assay. The format is cell-based, human. Conditions: ARL67156 125 μM. Here is the method:
iTregs generated in the presence of AJI-241 (750 nM) or DMSO were plated in V-bottom 96 well plates in serum free media at a concentration of 75,000 cells per 100 μL. ARL67156 (125 μM) was added or not as indicated. A fixed dose of ATP (50 μM) was added to the cells and incubated at 37° C. for 45 minutes. ATP consumption was measured by a luminescence assay per the manufacturer's instructions (Promega, CellTiter-Glo Luminescent Cell Viability Assay) and read by a spectrofluorimeter. Percent consumption was calculated as (luminescence of test supernatant/luminescence of 50 μM ATP cell-free control supernatant)×100.

In the next data set the test system is iTreg. The experiment in a line: iTreg differentiation and potency. The format is cell-based, human. Conditions: for iTreg:allo Tconv ratio: 5-day MLRs; for iTreg:allo Tconv ratio / iTreg differentiation / absolute numbers of iTregs: vs DMSO; for iTreg differentiation / absolute numbers of iTregs: Treg-depleted naïve CD4+ T-cells, allogeneic DCs, 5 days; for suppressive capacity of iTregs generated in presence of inhibitor: standard suppression assay, no additional inhibitor added. The protocol:
On day 5, iTregs were isolated and washed to minimize drug carry-over as reported. The T cells were harvested and surface-stained on day 5 for CD3, CD4, CD25, and CD127, followed by fixation and permeabilization (eBioscience) and Foxp3 staining. The absolute number of iTreg was calculated by flow cytometry using CountBright beads (Life Technologies). The purified iTregs were titrated against alloMLRs consisting of responder CD4+CD25− T cells (5×10^4) from the iTregs donor and fresh allogeneic DCs (1.6×10^3) to determine suppressive potency. T cell proliferation was determined by pulsing cells with [^3H]thymidine ([…]). Surface expression of CD39 and LAG3 was evaluated on the iTregs. iTregs production of CTLA4 was assessed by intracellular staining after a 5-hour treatment of PMA/ionomycin, with GolgiStop added during the last 4 hours of incubation. iTregs synthesis of IL-10 and TGF-β (Quansys Biosciences) was quantified from supernatants using multiplex cytokine assays after PMA/ionomycin stimulation.

For the next data set, the system named is STAT3 (target of JAK2). The experiment in a line: STAT3 phosphorylation in T-cells (flow cytometry). Type of data set: cell-based, human. Conditions: in vitro, DC- or IL-6-stimulated, vs DMSO. Here is the method: IL-6-induced pSTAT3 or IL-2-induced pSTAT5 (Y694) was measured by flow cytometry.
The subject of another data set is pSTAT5 (Y694). The experiment in a line: IL-2-induced STAT5 phosphorylation in T-cells. The format is cell-based, human. The settings on record: vs DMSO or unstimulated controls. The protocol: As indicated, T cells were serum-starved in RPMI treated with DMSO diluent control, alisertib, TG101348, a combination of both inhibitors, AJI-214, or AJI-100 for 4 hours. IL-6-induced pSTAT3 or IL-2-induced pSTAT5 (Y694) was measured by flow cytometry.

For the next data set, the system named is RORgammaT. As to the kind of experiment: RORgammaT expression by RT-PCR. Type of data set: cell-based, human. The settings on record: TH17-polarizing medium, 5 days, vs DMSO.
The next data set concerns TH17. As to the kind of experiment: IL-17 ELISPOT of DC-stimulated CD4+ T cells. The format is cell-based, human. Conditions: DC-stimulated purified CD4+ T cells. Here is the method: Naïve CD4^+ T cells were purified and allostimulated (DC/T cell ratio of 1:30) as reported (B. C. Betts et al., CD4^+ T cell STAT3 phosphorylation precedes acute GVHD, and subsequent TH17 tissue invasion correlates with GVHD severity and therapeutic response. J. Leukocyte Biol. (2015)). Alisertib ([…]), TG101348 (350 nM), both alisertib and TG101348, AJI-214 (750 nM), AJI-100 (750 nM), or DMSO control was added once on day 0. Medium was supplemented with IL-6 (1×10^5 IU/mL), TGF-β (4 ng/mL; R&D Systems), and anti-IFN-γ monoclonal antibody ([…]; eBioscience) to polarize TH17. After 5 days, the T cells were harvested, washed, and then plated at 35,000 cells per well in an IL-17 ELISPOT plate (R&DSystems). The CD4^+ T cells were stimulated with PMA/ionomycin, and the ELISPOT assay was performed according to the manufacturer's instructions.

For data set [2], the system named is xenogeneic GVHD (NSG mice transplanted with human PBMCs). As to the kind of experiment: Xenogeneic GVHD model. The format is in vivo. The settings on record: alisertib 30 mg/kg daily, TG101348 45 mg/kg twice a day, oral gavage day 0 to +14. The source says: After transplantation and treatment with either AJI-100 or vehicle control, human T cells were isolated from recipient mouse spleens at day +14, stained for pH3Ser^10 or pSTAT3 (+IL-6 stimulation), and analyzed as described.
NOD scid gamma (NSG) mice (male or female, 6-24 weeks old) were purchased from Jackson Laboratory (Bar Harbor, Me., USA) and raised per an IACUC-approved protocol in adherence to the NIH Guide for the Care and Use of Laboratory Animals. Mice received either (i) alisertib (30 mg/kg daily), TG101348 (45 mg/kg twice a day), a combination of alisertib and TG101348, or vehicle (methylcellulose) by oral gavage or (ii) AJI-100 (50 mg/kg daily) or vehicle (50% polyethylene glycol, 15% 2-hydroxypropyl-b-cyclodextrin, and 10% DMSO in sterile saline) ip from day 0 to day +14.
Mice were monitored for GVHD clinical scores (K. R. Cooke et al., An experimental model of idiopathic pneumonia syndrome after bone marrow transplantation: I. The roles of minor H antigens and endotoxin. Blood 88, 3230 (1996)), weight, and premoribund status. As indicated, mice were euthanized on day +14 to study recipient spleen Tconv, Tregs, TH1, TH17, B cells, and T-cell signal transduction. Human CD4^+ Treg (CD25+, CD127^−, Foxp3^+), Tconv(CD25^+, CD127^+), TH1, TH17, and CD19^+ B cells residing in recipient spleens were quantified by flow cytometry. T-cell pH3 ser10 and PSTAT3 were evaluated by flow cytometry. IL-17 ELISPOTs were performed using isolated human T cells from recipient mouse spleen as described above. Tissue samples were prepared, stained (Ventana Medical Systems, Tucson, Ariz.), and imaged (Vista, Calif., USA) to identify human T-cells as previously described. All vertebrate animal work was IACUC-approved.

The next data set has as its system GVHD. The settings on record: mouse, in vivo; cited from earlier work.
For data set [3], the system named is H3 Ser10 (target of Aurora). The experiment in a line: H3 Ser10 phosphorylation in DC-allostimulated T-cells (flow cytometry). Type of data set: cell-based, human. Conditions: 5-day allogeneic DC stimulation; AJI 750 nM, alisertib 1.75 μM, TG101348 350 nM. Here is the method: After 5 days, T cells were then harvested and directly fixed (Cytofix, BD Biosciences) for 10 min at 37° C. After washing with phosphate-buffered saline, the T cells were permeabilized with icecold methanol (90%, v/v) for at least 20 min at -20° C. The cells were stained for expression of CD3 and pH[…].

A further data set in a line: Bioavailability. The settings on record: in vivo.

For the compound `CCN(CC)c1ncnc2c1ncn2[C@@H]1O[C@H](COP(=O)(O)OP(=O)(O)C(Br)(Br)P(=O)(O)O)[C@@H](O)[C@H]1O` [ARL67156], the “T-cell inhibition by bisanilinopyrimidine (I)/AJI-214 on CD39 blockade” value in data set [1] (natural Treg-depleted CD4+ alloMLR, ARL67156 added) was “significantly weakened”. The “hydrolysis of ATP by AJI-treated iTregs on CD39 blockade” value in the data set on CD39 on iTreg is listed as “significantly impaired”.
Consider `Cc1cnc(Nc2ccc(OCCN3CCCC3)cc2)nc1Nc1cccc(S(=O)(=O)NC(C)(C)C)c1` [TG101348], for which the IC50 in data set [1] (Homo sapiens, TG101348 and alisertib added together at fixed ratio 1:5, read-out: IC50 of the combination, TG101348 concentration) is 0.35 µM. For the same compound, the “concentrations reducing alloreactive T-cell proliferation” value in [1] (alloMLR) is ≥ 350 nM. In the data set with iTreg, the “iTreg:allo Tconv ratio” value is recorded as “incrementally larger Treg:allo Tconv ratios”; the “iTreg differentiation / absolute numbers of iTregs” value was “less absolute numbers of iTregs and allo Tconv”; the “suppressive capacity of iTregs generated in presence of inhibitor” value is listed as “improved iTreg function compared with DMSO”. The “STAT3 (pSTAT3 Y705) phosphorylation in T-cells” value in the data set with STAT3 (target of JAK2) was “only inhibited pSTAT3”. Besides, in the data set on pSTAT5 (Y694), the “IL-2-induced STAT5 activation/phosphorylation in T-cells” value was “remained intact”. Moreover, in the data set with RORgammaT, the “RORgammaT expression in alloresponder CD4+ T-cells” value is given as “significantly decreases”.
For `COc1cc(Nc2ncc3c(n2)-c2ccc(Cl)cc2C(c2c(F)cccc2OC)=NC3)ccc1C(=O)O` [alisertib], the inhibition at 0.625 µM in data set [1] (Homo sapiens, T-cell, alisertib 625 nM, read-out: inhibition of proliferative response of T-cells in alloMLRs) was 32.5%. Besides, in data set [1] (Homo sapiens, T-cell, alisertib alone (Study 2 text), read-out: median inhibitory concentration (IC50), T cells in alloMLRs), the IC50 came out at 10 µM. Also, the IC50 in [1] (Homo sapiens, T-cell, alisertib alone, read-out: IC50, proliferative response of T-cells in alloMLRs) was determined as 10 µM. In data set [1] (Homo sapiens, TG101348 and alisertib added together at fixed ratio 1:5, read-out: IC50 of the combination, alisertib concentration), the IC50 stood at 1.75 µM. The “TH17 (IL-17 ELISPOT)” value in the data set with TH17 is on record as “no effect”. The median survival in data set [2] was 41 days. For the same compound, the “onset of GVHD in mice” value with GVHD is “significantly delayed the onset of GVHD”. For the same compound, in the data set on iTreg, the “iTreg:allo Tconv ratio” value is on record as “incrementally larger Treg:allo Tconv ratios”; the “iTreg differentiation / absolute numbers of iTregs” value was “less absolute numbers of iTregs and allo Tconv”; the “suppressive capacity of iTregs generated in presence of inhibitor” value is given as “superior suppressive capacity”. Further, in the data set with pSTAT5 (Y694), the “IL-2-induced STAT5 activation/phosphorylation in T-cells” value is “remained intact”. Also, in the data set on RORgammaT, the “RORgammaT expression in alloresponder CD4+ T-cells” value was “no effect”. For the same compound, in [3], the “phosphorylation of histone 3 serine 10 (pH3 Ser10) in T-cells” value is recorded as “only inhibited pH3Ser^10”.
Consider `NC(=O)c1ccc(Nc2ncc(F)c(Nc3ccccc3Cl)n2)cc1` [bisanilinopyrimidine (I)], for which, in the data set “Bioavailability”, the bioavailability result is “limited bioavailability”.
